Legend:
[1] = tested on: Mytilus galloprovincialis; assay: Mussel foot retraction assay; format: in vivo; conditions: for Mussels showing foot retraction: 200 μM, highest test concentration; for EC50: Mytilus galloprovincialis, dripped on the foot, read-out: Concentration required to cause foot repulsion in 50% of mussels
Description: The mussel Mytilus galloprovincialis was used as target organism. Individuals of 4.0–4.5 cm shell length were collected at intertidal rocky shore of the outer Ría de Vigo (NW Spain). Animals were kept in running seawater aquarium tanks with open-flow design for few days and fed daily by pulses with a mixture of the microalgae (Tahitian Isochrysis aff. galbana) and sediment from the seafloor below the mussel rafts.
Mussel foot retracting assay was conducted following the method reported by Hayashi and Miki. Briefly, subsamples of individuals from the maintenance tanks were transferred to containers filled with 1-μm FSW. After 30 min, the posterior adductor muscle (PAM) was cut to open both animal´s valves as shown in S1A Fig, and byssus filaments were removed from their insertion with the soft tissues. Animals were disposed individually on flexible innocuous plasticine basis as a holder still for 15 min in FSW. The latter disposition avoided animal´s manipulation before and after each test solution was dripped directly on the foot of immobilized animals. FSW was removed and animals exposed their internal cavities in dry conditions for the dripping actions but maintaining a humidity layer over soft tissues.
Initially two different controls (negative and positive) were considered. As negative control, 2.5 μl of DMSO in 0.2-μm FSW was used. […] After the negative control test, the animals were disposed back in 1-μm FSW for 15 min. With regard to the positive control, 1000 ppm of CuSO4 was used. For the latter case, only animals that did react to such positive control were used. After this second control, animals were disposed back in 1-μm FSW, this time for 25 min in order to remove completely any rest of copper. All animals considered for the experiment have accomplished the two controls satisfactorily.
Different concentrations (6.25, 12.5, 25, 50, 100 and 200 μM) of two test compounds, 3 and 16 were used. Stocks of 40 mM for the two compounds under investigation were prepared in DMSO. Posterior dilution actions to get the distinct concentrations desired were prepared with 0.2-μm FSW. Concentrations were tested in ascending order from 6.25 to 200 μM. Animals were kept in 0.2-μm FSW for 15 min at each time interval between sampling with the aim to wash the internal soft tissues. After each removal of seawater, animals were ready to use again.
Eight series of ten animals each were considered for retracting muscle foot analysis and each test compound. Each potential foot-reacting substance was individually dripped on the foot of the mussels (S1B Fig) and the animal’s reactions were noted. […]

[2] = tested on: V. harveyi WT and reporter strains; assay: V. harveyi growth inhibition (OD600); format: cell-based; conditions: Vibrio harveyi, 18 h, read-out: IC50 Growth
Description: (§1) V. harveyi BB120 (wild type strain), BB170 (luxN::Tn5kan), BB886 (luxPQ::Tn5kan) and BB721 (luxO::Tn5lacZ) were acquired from ATCC. To screen the ability of the compounds to interfere with QS, the test products were serially diluted in 100 μl of Autoinducer Bioassay (AB) medium using white, clear-bottom 96-well microtiter plates (Costar 3610) as assay platform. Aerobic bacterial cultures were incubated overnight (30 °C) and diluted 1:50. One-hundred μl of the diluted cultures were dispensed inside each well in the microtiter plate. That gave a starting cell density of 1–2 x 10^7 cfu ml^-1. The plates were covered with a sterile sealing film. Luminescence and OD600 were monitored every 15 min over 18 h with a multimode plate reader (Perkin-Elmer EnSpire) in order to correlate the effects of the products on both the growth and bioluminescence kinetics.
(§2) Compounds 3–5 and 7 were evaluated in V. harveyi WT and three mutant strains: BB886 (luxPQ::Tn5Kan), unable to detect AI-2; BB170 (luxN::Tn5Kan), unable to detect HAI-1; and BB721 (luxO::Tn5lacZ), a LuxO null mutant that produces maximal luminescence per cell constitutively. In order to take into account the cumulative effects of the compounds, bioluminescence and growth were measured simultaneously every 15 min over 18 h (Fig 7). Accordingly, IC50 values for bacterial luminescence and growth were obtained by integration of the areas under the curves for each tested dose (Table 3). For clarity of the graphs, error bars has been omitted in Fig 7 and only the mean curves are shown.

[3] = tested on: V. harveyi BB721 (luxO::Tn5lacZ); assay: Quorum sensing bioassay: bioluminescence; format: cell-based; conditions: Vibrio harveyi, 18 h, read-out: IC50 Luminescence BB721
Description: as §1, §2

[4] = tested on: V. harveyi BB120 (wild type strain); assay: Quorum sensing bioassay: bioluminescence; format: cell-based; conditions: Vibrio harveyi, 18 h, read-out: IC50 Luminescence WT
Description: as §1, §2

[5] = tested on: V. harveyi BB886 (luxPQ::Tn5kan); assay: Quorum sensing bioassay: bioluminescence; format: cell-based; conditions: Vibrio harveyi, 18 h, read-out: IC50 Luminescence BB886
Description: as §1, §2

[6] = tested on: V. harveyi BB170 (luxN::Tn5kan); assay: Quorum sensing bioassay: bioluminescence; format: cell-based; conditions: Vibrio harveyi, 18 h, read-out: IC50 Luminescence BB170
Description: as §1, §2

[7] = design: method as in earlier work; conditions: cited from earlier work
in vivo = conditions: in vivo
Description: All the biological assays were run by triplicate. […] For the active products, serial dilutions were performed to calculate the half-maximal inhibitory concentrations (IC50) or the minimal inhibitory concentrations (MIC). Unless otherwise stated, the test concentrations were 100, 50, 25, 10, 5, 2.5, 1, 0.5 and 0.1 μM. Dose-response curves were adjusted with GraphPad Prism 5 software using a four-parameter non-linear regression model.
Artemia salina cysts (INVE Aquaculture, Ghent, Belgium) were hatched in brackish water (30 ‰ salinity) at 28 °C with aeration and under constant light. Newly hatched instar I nauplii were harvested for bioassays. Tests were conducted in 96-well plates (15±5 nauplii per well, test volume = 200 μl). The number of dead and alive individuals was recorded after 24 h of incubation at 28 °C and 24-hour photoperiod.

Compound	Mussels showing foot retraction [1]	EC50 [1] [µM]	IC50 [2] [µM]	IC50 [3] [µM]	IC50 [4] [µM]	IC50 [5] [µM]	IC50 [6] [µM]	cmc threshold [7]	LC50 at 24 h (in vivo) [µM]
C/C=C/C[P+](c1ccccc1)(c1ccccc1)c1ccccc1 [Compound 3]	94–95%	47	> 500	348	297	265	251		
BrCCCC[P+](c1ccccc1)(c1ccccc1)c1ccccc1 [Compound 4]			> 500	> 500	> 500	307	226		
CCCCN[P+](c1ccccc1)(c1ccccc1)c1ccccc1 [Compound 5]			> 500	> 500	> 500	> 500	> 500		
CCCCC[P+](c1ccccc1)(c1ccccc1)c1ccccc1 [Compound 7]			> 500	276	205	179	129		
CCCCCCCCCCCCCCCC[P+](c1ccccc1)(c1ccccc1)c1ccccc1 [Compound 16]	94–95%	34						around 100 μM	
CCCCCCCCCCCCCCCCCC[P+](c1ccccc1)(c1ccccc1)c1ccccc1 [Compound 17]									< 0.5
CCCCCCCCCCCCCCCCCCC[P+](c1ccccc1)(c1ccccc1)c1ccccc1 [Compound 18]									< 0.5

— article PMC4405350, “From Broad-Spectrum Biocides to Quorum Sensing Disruptors and Mussel Repellents: Antifouling Profile of Alkyl Triphenylphosphonium Salts” (PLoS ONE, 2015)
